Measured values from patent US20120301468A1, “ANTI-MN ANTIBODIES AND METHODS OF USING SAME” (BAYER HEALTHCARE LLC, priority 2005, published 2012).

Experiments:
tubulin in HT-29 tumors = experiment: In vivo mechanism of action, immunohistochemistry of HT-29 tumors; parameters: species or system athymic mice
Experimental: To explore the in vivo mechanism of action of 3ee9/MMAE, tumors were implanted subcutaneously at right flank of the mice with 5×10^6 HT-29 cells. Eight days later, athymic mice bearing HT-29 tumors were treated with vehicle or with 3ee9/MMAE at 1.25 and 5 mg/kg (Q1Dx1). Tumors were collected and fixed in formalin 4 hours and 1, 3 and 5 hours following administration of 3ee9/MMAE. Samples were then embedded in paraffin, sectioned at 5 μm, de-paraffinized, and stained using standard protocol for fluorescent immunohistochemistry of human tissues using mouse antibodies: Anti-α/β-tubulin, Anti-phospho-Histone H3, and DNA. The slides were then observed under a fluorescent microscope, and representative images were taken through three separate color channels.
3ee9/MMAE had little effect in affecting cell mechanism in the 4 hr samples. […] In addition, decreased level of tubulin staining could be observed. These effects were then highly amplified in the day 3 and day 5 samples.

MN-negative DLD cells = experiment: FACS cell binding, DLD cells; assay type: cell-based
Experimental: Cells may be assayed for MN expression as a diagnostic tool. Adherent MN-expressing PC-3 mm2 cells and non-MN expressing DLD1 cells were detached from their flasks with 1:10 trypsin/Versene in PBS solution for 5 to 10 minutes. Cells were spun down (1000 rpm, 5 minutes), washed once with ice cold RPMI 10% FBS, and resuspended in ice-cold staining buffer (Ca^+ Mg^+-free PBS, 2% BSA, and 0.05% sodium azide) at 6×10^6 cells/ml. Primary antibody, human anti-MN IgG1, or control human IgG1 antibody at 25 μg/mL were incubated with 6×10^5 cells on ice for 1 hour. The unbound antibody was washed from the cells with the ice-cold staining buffer. The cells were fixed with 2% formaldehyde in PBS for 10 minutes, then washed twice with staining buffer. The cell pellet was resuspended in 100 μl ice cold staining buffer containing anti-human Alexa fluor 488 secondary antibody (final conc. 1:200, Molecular Probes/Invitrogen, Carlsbad, Calif.), and incubated on ice for 1 hour. The unbound antibody was washed from the cells two times with flow buffer (PBS containing 2% BSA), and the cells were resuspended in 1 mL flow buffer. FACS analysis of the resuspended cells was performed on a […] FACS Caliber instrument.
The MN antibody G250, a humanized IgG1 antibody, (Wilex) was used as a reference throughout the in vitro studies.

[1] = test system: HT-29 human CRC xenograft; experiment: HT-29 subcutaneous xenograft model; assay type: in vivo, athymic NCr (nu/nu) mice; settings: for TGI: end of dosing
Experimental: When tumors reached an average size of ˜120 mg (5 days), treatment was initiated. […] In addition, MMAE was assessed as a free drug at a dose of 0.1, 0.2 and 1 mg/kg. The 0.1 and 0.2 mg/Kg doses of MMAE represent equivalent amounts of this drug to those present on 5 and 10 mg/Kg 3ee9/MMAE respectively.
Anti-tumor effect of 3ee9/MMAE was also assessed in varying schedules, i.e., once a week dosing for total of two doses (Q7Dx2, FIG. 20) and a single dose at the time of staging (Q1Dx1, FIG. 21). In both schedules, 3ee9/MMAE was dosed at 0.625, 1.25, 2.5, 5 and 10 mg/kg.

MN-negative cells (DLD1) = experiment: Antibody internalization (Cellomics), DLD1; assay type: cell-based
[2] = test system: high MN-expressing huMN-MIAPaCa2 xenograft; experiment: huMN-MIAPaCa2 xenograft model; assay type: in vivo, mice; settings: for TGI: end of dosing
Experimental: To better understand the relationship between MN expression and antitumor efficacy, xenograft efficacy studies were conducted using a low MN-expressing pancreatic model, MIAPaCa2 and high MN-expressing huMN-MIAPaCa2 model. This latter line was derived by engineering the MIAPaCa2 line to stably express MN. […] 3ee9/MMAE dosed at 10 mg/kg only produced 50% TGI.

[3] = test system: MN non-expressing cells (H460); experiment: Spindle formation / tubulin staining, H460; assay type: cell-based; settings: tubulin stained with fluorescence labeled antibody
From the text: The cytotoxic drug MMAE delivered by 3ee9/MMAE is a tubulin inhibitor that prevents spindle formation during cell mitosis resulting in G2/M arrest. The tubulin is stained with florescence labeled antibody. […] These studies confirmed that the antibody drug conjugate 3ee9/MMAE kills cell through targeted tubulin disruption.

Q: For “3ee9/MMAE: human anti-MN IgG1 antibody 3ee9 conjugated to Monomethylauristatin E (MMAE)”, which “cells affected by treatment in tumors” value (tubulin in HT-29 tumors; 5 mg/kg Q1Dx1, day 5) is on record?
A: almost all cells

Q: And the “effect on cell mechanism in tumors” value (tubulin in HT-29 tumors; 1.25 and 5 mg/kg Q1Dx1, 4 hr samples)?
A: little effect

Q: And the “G2/M arrest, spindle and tubulin staining in tumors” value (tubulin in HT-29 tumors; 1.25 and 5 mg/kg Q1Dx1, day 1)?
A: increased numbers of cells were in G2/M arrest

Q: And the “cell binding by FACS” value (MN-negative DLD cells)?
A: not MN-negative DLD cells

Q: And the TGI ([1]; HT-29, 0.625 mg/kg Q4Dx3)?
A: 54%

Q: And the “% Inhibition (1-T/D)*100 (Day 18)” value ([1]; HT-29, 0.625 mg/kg, Q1D × 1)?
A: 42%

Q: And the “Percent Regressions” value ([1]; HT-29, 0.625 mg/kg, Q1D × 1)?
A: 0%

Q: What about the “% Inhibition (1-T/D)*100 (Day 18)” value ([1]; HT-29, 0.625 mg/kg, Q4D × 3) of the same substance?
A: 54%

Q: And the “Percent Regressions” value ([1]; HT-29, 0.625 mg/kg, Q4D × 3)?
A: 0%

Q: And the “% Inhibition (1-T/D)*100 (Day 18)” value ([1]; HT-29, 0.625 mg/kg, Q7D × 2)?
A: 48%

Q: What about the “Percent Regressions” value ([1]; HT-29, 0.625 mg/kg, Q7D × 2) of the same substance?
A: 0%

Q: What about the animals showing regressions ([1]; HT-29, 1.25 mg/kg Q4Dx3) of the same substance?
A: 20%

Q: What about the TGI ([1]; HT-29, 1.25 mg/kg Q4Dx3) of the same substance?
A: 72%

Q: And the “% Inhibition (1-T/D)*100 (Day 18)” value ([1]; HT-29, 1.25 mg/kg, Q1D × 1)?
A: 48%

Q: And the “Percent Regressions” value ([1]; HT-29, 1.25 mg/kg, Q1D × 1)?
A: 0%

Q: And the “% Inhibition (1-T/D)*100 (Day 18)” value ([1]; HT-29, 1.25 mg/kg, Q4D × 3)?
A: 72%

Q: What about the “Percent Regressions” value ([1]; HT-29, 1.25 mg/kg, Q4D × 3) of the same substance?
A: 2%

Q: What about the “% Inhibition (1-T/D)*100 (Day 18)” value ([1]; HT-29, 1.25 mg/kg, Q7D × 2) of the same substance?
A: 71%

Q: And the “Percent Regressions” value ([1]; HT-29, 1.25 mg/kg, Q7D × 2)?
A: 0%

Q: And the regressions ([1]; HT-29, 2.5 mg/kg Q4Dx3)?
A: 90%

Q: And the TGI ([1]; HT-29, 2.5 mg/kg Q4Dx3)?
A: 97%

Q: What about the “% Inhibition (1-T/D)*100 (Day 18)” value ([1]; HT-29, 2.5 mg/kg, Q1D × 1) of the same substance?
A: 93%

Q: And the “Percent Regressions” value ([1]; HT-29, 2.5 mg/kg, Q1D × 1)?
A: 5%

Q: And the “% Inhibition (1-T/D)*100 (Day 18)” value ([1]; HT-29, 2.5 mg/kg, Q4D × 3)?
A: 97%

Q: What about the “Percent Regressions” value ([1]; HT-29, 2.5 mg/kg, Q4D × 3) of the same substance?
A: 9%

Q: What about the “% Inhibition (1-T/D)*100 (Day 18)” value ([1]; HT-29, 2.5 mg/kg, Q7D × 2) of the same substance?
A: 92%

Q: What about the TGI ([1]; HT-29, 5 mg/kg Q4Dx3) of the same substance?
A: 100%

Q: And the “% Inhibition (1-T/D)*100 (Day 18)” value ([1]; HT-29, 5 mg/kg, Q1D × 1)?
A: 98%

Q: And the “Percent Regressions” value ([1]; HT-29, 5 mg/kg, Q1D × 1)?
A: 8%

Q: What about the “% Inhibition (1-T/D)*100 (Day 18)” value ([1]; HT-29, 5 mg/kg, Q4D × 3) of the same substance?
A: 100%

Q: And the “Percent Regressions” value ([1]; HT-29, 5 mg/kg, Q4D × 3)?
A: 10%

Q: What about the “% Inhibition (1-T/D)*100 (Day 18)” value ([1]; HT-29, 5 mg/kg, Q7D × 2) of the same substance?
A: 96%

Q: What about the “Percent Regressions” value ([1]; HT-29, 5 mg/kg, Q7D × 2) of the same substance?
A: 7%

Q: And the TGI ([1]; HT-29, 10 mg/kg Q4Dx3)?
A: 100%

Q: And the “% Inhibition (1-T/D)*100 (Day 18)” value ([1]; HT-29, 10 mg/kg, Q1D × 1)?
A: 100%

Q: What about the “Percent Regressions” value ([1]; HT-29, 10 mg/kg, Q1D × 1) of the same substance?
A: 10%

Q: And the “% Inhibition (1-T/D)*100 (Day 18)” value ([1]; HT-29, 10 mg/kg, Q4D × 3)?
A: 100%

Q: What about the “Percent Regressions” value ([1]; HT-29, 10 mg/kg, Q4D × 3) of the same substance?
A: 10%

Q: And the “% Inhibition (1-T/D)*100 (Day 18)” value ([1]; HT-29, 10 mg/kg, Q7D × 2)?
A: 100%

Q: And the “Percent Regressions” value ([1]; HT-29, 10 mg/kg, Q7D × 2)?
A: 10%

Q: What about the tolerability ([1]; HT-29, 0.625 to 10 mg/kg i.v. Q4Dx3) of the same substance?
A: well tolerated at all doses examined

Q: What about the responses ([1]; HT-29, 5 and 10 mg/kg Q4Dx3) of the same substance?
A: 100%

Q: What about the “anti-tumor effect in varying schedules” value ([1]; HT-29, Q7Dx2 and Q1Dx1, 0.625 to 10 mg/kg) of the same substance?
A: highly effective in inhibiting the growth

Q: What about the anti-tumor effects ([1]; HT-29 human colo-rectal cancer xenograft model) of the same substance?
A: anti-tumor effects were seen

Q: And the internalization (MN-negative cells (DLD1))?
A: not by MN-negative cells (DLD1)

Q: And the TGI ([2]; 2.5 mg/kg)?
A: 63%

Q: And the TGI ([2]; 5 mg/kg)?
A: 82%

Q: And the responses ([2]; 10 mg/kg)?
A: 100%

Q: And the TGI ([2]; 10 mg/kg)?
A: 94%

Q: And the “effect on spindle formation” value [3]?
A: No activity
